Laboratory results: patent US12527739B2 (Alcon Inc., priority 2022, dated 2026)

Tests used:
[1] = Concentration of benzyl atropine in freshly prepared simplified formulations; format: physicochemical
Description: Considerable efforts were made to simplify the formulation to reduce the overall amount of surfactants (Table 11).
The combination of two different species of surfactant was unexpected. […] The efficacy of this “double-buffered” vehicle was unexpected.

M5 muscarinic receptor = target: T1, M5 muscarinic receptor (Homo sapiens, UniProt P08912); assay: Muscarinic receptor radioligand displacement binding, M5
T1 sequence (P08912 1-532): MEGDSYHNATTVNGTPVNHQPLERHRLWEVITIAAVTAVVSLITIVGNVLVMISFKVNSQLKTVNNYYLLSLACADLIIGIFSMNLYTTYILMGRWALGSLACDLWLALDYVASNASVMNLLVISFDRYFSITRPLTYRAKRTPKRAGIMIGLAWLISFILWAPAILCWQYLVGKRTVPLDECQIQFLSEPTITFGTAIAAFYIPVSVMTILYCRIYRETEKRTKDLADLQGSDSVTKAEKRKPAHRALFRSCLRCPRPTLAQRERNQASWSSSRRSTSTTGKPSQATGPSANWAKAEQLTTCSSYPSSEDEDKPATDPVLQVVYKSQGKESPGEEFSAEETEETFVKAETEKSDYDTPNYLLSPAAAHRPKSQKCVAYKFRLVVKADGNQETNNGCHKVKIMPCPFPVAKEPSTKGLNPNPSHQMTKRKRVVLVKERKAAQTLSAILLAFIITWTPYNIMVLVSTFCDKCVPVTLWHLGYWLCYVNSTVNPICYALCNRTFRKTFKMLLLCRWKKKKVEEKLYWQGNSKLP

M3 muscarinic receptor = M3 muscarinic receptor (Homo sapiens, UniProt P20309); assay: Muscarinic receptor radioligand displacement binding, M3
Sequence of M3 muscarinic receptor (P20309 whole entry): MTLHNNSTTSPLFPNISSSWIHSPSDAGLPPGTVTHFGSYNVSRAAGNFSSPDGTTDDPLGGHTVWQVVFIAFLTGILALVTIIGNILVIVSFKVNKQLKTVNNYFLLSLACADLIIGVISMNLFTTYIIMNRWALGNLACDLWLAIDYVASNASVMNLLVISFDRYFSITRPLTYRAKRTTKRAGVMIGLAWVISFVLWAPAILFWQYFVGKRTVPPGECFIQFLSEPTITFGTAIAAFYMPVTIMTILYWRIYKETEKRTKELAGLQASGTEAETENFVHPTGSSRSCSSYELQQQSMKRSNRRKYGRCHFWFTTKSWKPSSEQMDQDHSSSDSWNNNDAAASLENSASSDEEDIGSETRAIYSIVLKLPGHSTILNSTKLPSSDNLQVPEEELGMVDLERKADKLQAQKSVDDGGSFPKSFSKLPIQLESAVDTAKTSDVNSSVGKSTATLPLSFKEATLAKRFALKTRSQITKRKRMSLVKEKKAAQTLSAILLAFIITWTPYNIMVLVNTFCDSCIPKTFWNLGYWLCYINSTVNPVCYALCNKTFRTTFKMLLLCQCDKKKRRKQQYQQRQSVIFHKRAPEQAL

[2] = 0.78% Sodium Chloride in 30 mM Acetate Buffer, pH 4.55
[3] = 3.5% PEG-400, 0.46% Sodium Chloride in 30 mM Acetate Buffer, pH 4.62
[4] = 3.5% PEG-400, 5.0% PEG-35 Castor Oil, 0.37% Sodium Chloride in 30 mM Acetate Buffer, pH 4.67
[5] = 5.0% PEG-35 Castor Oil, 0.81% Sodium Chloride in 30 mM Acetate Buffer, pH 4.57
[6] = 7.0% PEG-40 Stearate, 0.58% Sodium Chloride in 30 mM Acetate Buffer, pH 4.64
[7] = 7.0% PEG-40 Stearate, 0.65% Sodium Chloride in 5 mM Phosphate Buffer/30 mM Acetate Buffer

CN1C2CCC1CC(OC(=O)C(CO)(Cc1ccccc1)c1ccccc1)C2 (racemic) [Benzyl Atropine, benzyl atropine]
Actual Concentration [1, 2]: 0.92 mg/g
Final Osmolality [1, 2]: 263.5 mOsm/kg
Final pH [1, 2]: 7.2
Actual Concentration [1, 3]: 1.79 mg/g
Final Osmolality [1, 3]: 287 mOsm/kg
Final pH [1, 3]: 7.1
Actual Concentration [1, 4]: 3.95 mg/g
Final Osmolality [1, 4]: 293 mOsm/kg
Final pH [1, 4]: 7.4
Actual Concentration [1, 5]: 3.02 mg/g
Final Osmolality [1, 5]: 306.5 mOsm/kg
Final pH [1, 5]: 7.5
Actual Concentration [1, 6]: 4.62 mg/g
Final Osmolality [1, 6]: 264.5 mOsm/kg
Final pH [1, 6]: 7.4
Actual Concentration [1, 7]: 5.32 mg/g
Final Osmolality [1, 7]: 291 mOsm/kg
Final pH [1, 7]: 6.4
highest achievable concentration that did not re-precipitate ([1]; in the presence of 3.5% PEG-400, 5% PEG-35 castor oil, and 0.37% NaCl): 3.9 mg/g
binding to the receptor (in words) (M5 muscarinic receptor): not to bind at all
binding to the receptor (in words) (M3 muscarinic receptor): not to bind at all
